From patent US20080025916A1, “Tailored Treatment Suitable for Different Forms of Mastocytosis” (AB Science, priority 2003, published 2008)

What was measured:
[1] = molecular target: 816 mutated c-kit (D816V mutant form of the human c-kit receptor) (Homo sapiens, UniProt P10721, D816V)
Description: (§1) At 24, 48 and 72 hours, the number of viable cells was determined in each condition using the trypan blue exclusion assay.

[2] = tested on: mouse bone marrow-derived mast cell line (BMMC) expressing the mutant D816V form of the human c-kit; test: proliferation of BMMC line, viable cell count by trypan blue exclusion assay; type: cell-based; settings: 24, 48 and 72 hours
Description: as §1

[3] = tested on: lymphoid BaF/3 murine cell line transfected with the D816V mutant form of the human c-kit; test: proliferation of BaF/3 cells transfected with D816V c-kit; type: cell-based; settings: not affected up to 1 microM, inhibited above 1 microM as in BMMC
Description: as §1

[4] = tested on: juxtamembrane mutated c-kit; settings: shown in WO 02/080925; cited from earlier work
c-kit wild = c-kit wild (Homo sapiens, UniProt P10721); settings: shown in WO 02/080925; cited from earlier work
c-kit wild, sequence (P10721 26-976): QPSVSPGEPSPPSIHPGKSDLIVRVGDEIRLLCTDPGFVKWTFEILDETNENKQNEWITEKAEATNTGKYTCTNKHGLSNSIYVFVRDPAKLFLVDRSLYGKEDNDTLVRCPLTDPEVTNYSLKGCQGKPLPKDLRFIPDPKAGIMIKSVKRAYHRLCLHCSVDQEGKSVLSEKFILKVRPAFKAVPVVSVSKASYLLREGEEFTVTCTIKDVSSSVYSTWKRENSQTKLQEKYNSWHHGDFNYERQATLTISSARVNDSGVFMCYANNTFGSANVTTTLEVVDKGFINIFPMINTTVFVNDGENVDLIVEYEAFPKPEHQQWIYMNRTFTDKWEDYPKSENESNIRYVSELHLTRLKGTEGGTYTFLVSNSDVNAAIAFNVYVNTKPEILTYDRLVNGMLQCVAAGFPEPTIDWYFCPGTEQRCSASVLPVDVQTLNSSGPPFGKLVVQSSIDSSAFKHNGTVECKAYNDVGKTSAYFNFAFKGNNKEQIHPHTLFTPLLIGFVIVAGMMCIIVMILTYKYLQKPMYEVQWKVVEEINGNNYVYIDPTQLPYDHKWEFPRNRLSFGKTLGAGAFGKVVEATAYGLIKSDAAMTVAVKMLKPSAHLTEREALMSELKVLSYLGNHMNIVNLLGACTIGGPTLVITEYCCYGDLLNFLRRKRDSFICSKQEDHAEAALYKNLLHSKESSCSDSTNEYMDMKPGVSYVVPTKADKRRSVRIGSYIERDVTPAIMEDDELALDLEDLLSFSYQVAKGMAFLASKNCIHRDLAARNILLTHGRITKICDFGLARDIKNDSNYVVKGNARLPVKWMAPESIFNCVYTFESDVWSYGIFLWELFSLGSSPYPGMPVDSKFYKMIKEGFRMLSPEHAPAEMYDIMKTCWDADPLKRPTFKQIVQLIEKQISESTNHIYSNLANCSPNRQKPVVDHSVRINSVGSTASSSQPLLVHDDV

816 mutated c-kit (D816V mutant form of the human c-kit receptor), sequence (P10721 26-976 D816V): as the sequence (P10721 26-976) above, with D791V counted along it

Cc1ccc(NC(=O)c2ccc(CN3CCN(C)CC3)cc2)cc1Nc1nccc(-c2cccnc2)n1 [STI571]
resistance of the D816V mutant form of the human c-kit receptor ([1]; pharmacological doses): resistant
activity on 816 mutated c-kit ([1]; see FIGS. 1 and 2): not active
proliferation of the BMMC line with the mutant D816V form of the human c-kit ([2]; STI-571 under or equal to 1 microM, FIG. 2): not affected
proliferation of the BMMC line with the mutant D816V form of the human c-kit ([2]; concentrations of STI-571 above 1 microM (up to 10^-5 M)): dose- and time-dependently inhibited
proliferation of BaF/3 cells with D816V human c-kit (same result as BMMC) [3]: also observed
activity on the juxtamembrane mutated c-kit [4]: very active
activity on c-kit wild (c-kit wild): active
